Laboratory results as given in publication PMC10381533, “Inhibitory Effects of the Fungal Pigment Rubiginosin C on Hyphal and Biofilm Formation in Candida albicans and Candida auris” (Journal of Fungi, 2023).
Where two headings read alike, the source gives them in different places. *1 amine or outer side, *2 acyl side, *3 side chain or, on linkers, in order; H or OH if unused. Where a SMILES comes first, the peptide text is derived from it. [ ]: non-standard residue; d: D form. The star is where a group is joined. X1 = O=C(C[C@H](N[*:1])c1ccc(O)cc1)[*:2]; dVal(3-OH) = CC(C)(O)[C@@H](N)C(=O)O; ΔIle(E) = CC/C(C)=C(/N)C(=O)O; Isovaleryl = CC(C)CC(=O)*; Agmatine = N=C(N)NCCCCN*; NMeA = CN[C@@H](C)C(=O)O; ΔVal = CC(C)=C(N)C(=O)O

Key:
[1] = test system: mouse fibroblasts L929 [ACC 2]; details: second value of the cell; cited from earlier work
[2] = test system: human endocervical adenocarcinoma KB-3-1 [ACC 158] cells; assay: MTT cytotoxicity assay, KB-3-1; format: cell-based; details: KB 3-1
Description: (§1) Cytotoxic effects were evaluated on human endocervical adenocarcinoma KB-3-1 [ACC 158] cells and mouse fibroblasts L929 [ACC 2] upon treatment with Rub C, W, and Rut A and B within the concentration range of 37 μg/mL–0.63 ng/mL. The half-maximum inhibitory concentrations (IC50) were determined by standard MTT assays as reported previously (see the Supplementary Material for detailed information). The IC50 values of Rub A and Z have currently been reported. […]
(§2) KB-3-1 (ACC 158) cervix carcinoma as well as L929 (ACC 2) mouse fibroblasts were cultured under standard cell culture conditions (37 °C, 5% CO2, 95% humidified atmosphere). The cells were maintained in high glucose DMEM containing 10% fetal bovine serum and 100 U/mL penicillin and streptomycin (Gibco, Thermo Fisher Scientific, Waltham, USA). Cell lines were serially passaged after trypsinization, using 0.05% trypsin / 0.02% EDTA solution. The cultures were routinely monitored for potential contamination, and only mycoplasma free cultures were used. The test compounds were investigated for their anti-proliferative effect on cell lines, using the 3-(4,5-dimethylthiazol-2-yl)-2,5-diphenyltetrazolium bromide (MTT) based cell viability assay. Cells were seeded in 96 well microtiter plates (Sarstedt, Germany) with a cell density of 0.05 * 10^6 cells per mL and 100 μL per well and were incubated for 24 h. […]
(§3) Absorbances at 570 nm and 630 nm were measured with a plate reader (Tecan, Männedorf, canton of Zürich, Switzerland). Background absorbance (630 nm) was subtracted from the formazan signal (570 nm). The resulting absorbance is directly proportional to the amount of viable cells. The control was normalized to 100% viable cells, and the viability of cells treated with the test compounds was calculated accordingly. IC50 values were calculated based on a sigmoidal fit model using GraphPad Prism. Means and SD were calculated from at least four independent experiments. […]

[3] = test system: mouse fibroblasts L929 [ACC 2]; assay: MTT cytotoxicity assay, L929; format: cell-based
Description: as §1, §2, §3

[4] = test system: human endocervical adenocarcinoma KB-3-1 [ACC 158] cells; details: second value of the cell; cited from earlier work
[5] = test system: preformed S. aureus biofilm; assay: Dispersal effect on preformed S. aureus biofilm; format: cell-based, Staphylococcus aureus
Description: (§4) compounds (250–2 μg/mL) in CASO with 4% glucose broth. The inhibition of biofilm formation was evaluated by staining with 150 μL of 0.1% crystal violet (CV; Thermo Fisher) following previously established protocols. In the next step, the supernatant of the 96-well plate was discarded and the wells were rinsed once with PBS buffer. The remaining biofilms were stained at room temperature for 15 min, rinsed three times with PBS buffer, and finally dissolved in 150 μL ethanol (95%). The absorbance of the resulting solution at 530 nm was quantified using a plate reader (Synergy 2, BioTek). Methanol (2.5%) and microporenic acid A (MAA) (250–2 μg/mL) were used as negative and positive controls. Standard deviations (SD) of two repeats with duplicates were 10% or less. […]
(§5) Table S2: Selected azaphilones were tested against the formation of biofilm of S. aureus, P. aeruginosa as well as C. auris and dispersal effect on preformed biofilm of S. aureus compared to solvent control (= 0%), respectively. SDs are shown as ±SD.
(§6) Compounds Strains Concentrations [µg/mL] […]

[6] = test system: Staphylococcus aureus (DSM 1104) biofilm; assay: Crystal violet biofilm inhibition assay, S. aureus; format: cell-based
Description: Selected azaphilones Rub C and W, Rut A and B were tested against the formation of biofilms in Staphylococcus aureus (DSM 1104). S. aureus DSM 1104 from a −20 °C stock was precultured in 25 mL CASO (casein-peptone soymeal-peptone) medium in a 250 mL flask at 37 °C with 100 rpm for 20 h. The OD600 of the culture solution was adjusted to 0.001 McFarland standard and incubated in 96-well microtiter plates (TPP tissue culture ref.no 92196, Switzerland) for 18 h at 37 °C with 150 μL of serially diluted test […]
as §4
μg/mL) were used as negative control and positive control, respectively. The assay was conducted for […]
as §5, §6

[7] = test system: Pseudomonas aeruginosa (PA 14) DSM 19882 biofilm; assay: Crystal violet biofilm inhibition assay, P. aeruginosa; format: cell-based; details: assay conducted once
Description: Selected azaphilones Rub C and W, Rut A and B were tested against the formation of biofilms in Pseudomonas aeruginosa (PA 14) DSM 19882. Bacterial strain was precultured in 25 mL LB medium (Luria - Bertani Broth) with a 250 mL flask at 37 °C with shaking 100 rpm overnight. The turbidity of the baterial solution was measured and diluted to match the turbidity of a 0.1 McFarland standard in M63 medium, which is supplemented with magnesium sulfate, glucose and casamino acids as previously described. The compounds were added into 150 μL bacterial solution at the concentration (250–2 μg/mL) then the solution was added in U-bottom 96 well plate (Falcon ref.no 351177, Thermo Fisher Scientific). The plates were incubated at 37 °C at 150 rpm for 24 h and biofilms were established at the air liquid interface. The plates were rinsed once by using PBS buffer, the biofilms were stained by 150 μL 0.1% CV at room temperature for 15 min and then rinsed two times by using PBS buffer. The absorbance was quantified with the plate reader (Synergy 2, BioTek) at 550 nm using ethanol (95%). Methanol (2.5 %) and myxovalargin A (250 –2 μg/mL) were used as negative control and positive control, respectively. The assay was conducted for […]
as §5, §6

**Q.** With C/C(=C\c1csc(C)n1)[C@@H]1C[C@@H]2O[C@]2(C)CCC[C@H](C)[C@H](O)[C@@H](C)C(=O)C(C)(C)[C@@H](O)CC(=O)O1 [Epothilone B, reference compound] as the compound, how does the IC50 [1] read?
**A.** 31 pM

**Q.** And the IC50 [2]?
**A.** 53 pM

**Q.** What about the IC50 [3] of the same compound?
**A.** 170 pM

**Q.** What about the IC50 [4] of the same compound?
**A.** 28 pM

**Q.** For CC(C)=CCC/C(C)=C/CC/C(C)=C/CC/C(C)=C/CO[C@@H](C(=O)O)[C@H](CC(=O)O)C(=O)O [MAA, microporenic acid A, reference compound], which “dispersal effect on preformed biofilm of S. aureus compared to solvent control (= 0%)” value (“dispersal effect on preformed biofilm … (= 0%)” for short) ([5]; 15.6 µg/mL) is on record?
**A.** 33 ±10%

**Q.** What about the “dispersal effect on preformed biofilm … (= 0%)” value ([5]; 31.3 µg/mL) of the same compound?
**A.** 54 ±6%

**Q.** What about the “dispersal effect on preformed biofilm … (= 0%)” value ([5]; 62.5 µg/mL) of the same compound?
**A.** 60 ±9%

**Q.** What about the “dispersal effect on preformed biofilm … (= 0%)” value ([5]; 125 µg/mL) of the same compound?
**A.** 65 ±7%

**Q.** What about the “dispersal effect on preformed biofilm … (= 0%)” value ([5]; 250 µg/mL) of the same compound?
**A.** 65 ±4%

**Q.** What about the “inhibition of S. aureus biofilm formation compared to solvent control (= 0%)” value ([6]; 2 µg/mL) of the same compound?
**A.** / ((/) no activity)

**Q.** What about the “inhibition of S. aureus biofilm formation compared to solvent control (= 0%)” value ([6]; 3.9 µg/mL) of the same compound?
**A.** 45 ±10%

**Q.** What about the “inhibition of S. aureus biofilm formation compared to solvent control (= 0%)” value ([6]; 7.8 µg/mL) of the same compound?
**A.** 77 ±10%

**Q.** What about the “inhibition of S. aureus biofilm formation compared to solvent control (= 0%)” value ([6]; 15.6 µg/mL) of the same compound?
**A.** 83 ±6%

**Q.** And the “inhibition of S. aureus biofilm formation compared to solvent control (= 0%)” value ([6]; 31.3 µg/mL)?
**A.** 86 ±4%

**Q.** What about the “inhibition of S. aureus biofilm formation compared to solvent control (= 0%)” value ([6]; 62.5 µg/mL) of the same compound?
**A.** 86 ±4%

**Q.** What about the “inhibition of S. aureus biofilm formation compared to solvent control (= 0%)” value ([6]; 125 µg/mL) of the same compound?
**A.** 85 ±5%

**Q.** What about the “inhibition of S. aureus biofilm formation compared to solvent control (= 0%)” value ([6]; 250 µg/mL) of the same compound?
**A.** 83 ±6%

**Q.** Which results are given for CC/C(C)=C(/NC(=O)[C@H](NC(=O)[C@H](NC(=O)[C@@H](CCCN=C(N)N)NC(=O)C(NC(=O)[C@@H](NC(=O)C[C@H](NC(=O)[C@H](NC(=O)[C@H](NC(=O)[C@H](C)N(C)C(=O)[C@H](C)NC(=O)C(NC(=O)CC(C)C)=C(C)C)C(C)C)C(C)C)c1ccc(O)cc1)C(C)C)=C(C)C)C(C)C)C(C)C)C(=O)N[C@H](C)C(=O)N[C@@H](C(=O)NCCCCN=C(N)N)C(C)(C)O [Myxovalargin A, myxovalargin A, reference compound] (Isovaleryl-[ΔVal]A[NMeA][dV][dV][X1]V[ΔVal][dR][dV][dV][ΔIle(E)][dA][dVal(3-OH)]-Agmatine)?
**A.** inhibition of P. aeruginosa biofilm formation compared to solvent control (= 0%) ([7]; 2 µg/mL): / ((/) no activity); inhibition of P. aeruginosa biofilm formation compared to solvent control (= 0%) ([7]; 3.9 µg/mL): / ((/) no activity); inhibition of P. aeruginosa biofilm formation compared to solvent control (= 0%) ([7]; 7.8 µg/mL): / ((/) no activity); inhibition of P. aeruginosa biofilm formation compared to solvent control (= 0%) ([7]; 15.6 µg/mL): / ((/) no activity); inhibition of P. aeruginosa biofilm formation compared to solvent control (= 0%) ([7]; 31.3 µg/mL): 61%; inhibition of P. aeruginosa biofilm formation compared to solvent control (= 0%) ([7]; 62.5 µg/mL): 59%; inhibition of P. aeruginosa biofilm formation compared to solvent control (= 0%) ([7]; 125 µg/mL): 65%; inhibition of P. aeruginosa biofilm formation compared to solvent control (= 0%) ([7]; 250 µg/mL): 55%
